# Patent US6511939B1, “Coronatine as an abscission agent” (priority 2001, dated 2003)
# Experiments:
# Type in all cases: in vivo
# Valencia orange [1] = assay: Fruit pull-force reduction after spraying trees, Valencia orange; details: for % reduction in fruit pull force, day 5: 0.125% Kinetic, day 5, mean
# Procedure: (§1) Data are the means of 10 replicate branches, with 10 fruit/branch. Bars above and below the means indicate standard error of the mean.
# (§2) Solutions of COR were prepared that contained 200 mg/L or 300 mg/L of COR dissolved in water and 0.125% Kinetic®. The solution was sprayed until “run-off,” typically about 5 L/tree. […] Under field conditions, canopies should not be sprayed if rainfall is anticipated within 24 hours. For comparison purposes, 200 mg/L to 400 mg/L Ethrel® solutions and a 0.125% Kinetic® solution were applied to trees. After several days, usually 3 to 10, differences in fruit pull-force were measured between COR and other treatments and is an indication of fruit loosening ability. […] Differences in fruit drop were also measured by counting or weighing dropped fruit.
# Valencia orange [2] = assay: Fruit drop after spraying trees, Valencia orange; details: for % fruit drop, day 5: day 5, mean
# Procedure: as §1, §2
# Hamlin orange = assay: Fruit pull-force reduction after spraying trees, Hamlin orange; details: for % reduction in fruit pull force, day 5: day 5, mean
# Procedure: Data are the means of 6 replicate branches, with 10 fruit/branch. Bars above and below the means indicate standard error of the mean.
# as §2
# [3] = COR compositions 200 or 300 mg/L
smiles,measurement,setting,value
"CC[C@H]1C=C(C(=O)N[C@@]2(C(=O)O)C[C@@H]2CC)[C@H]2CCC(=O)[C@H]2C1 [COR, Coronatine]","% reduction in fruit pull force, day 5",Valencia orange [1]; 200 mg/L spray to run-off,96.1%
same,"% reduction in fruit pull force, day 5",Valencia orange [1]; 300 mg/L spray to run-off,96.3%
same,reduction of fruit pull-force,Valencia orange [1]; [3],approximately 95%
same,"% fruit drop, day 5",Valencia orange [2]; 200 mg/L spray to run-off,50%
same,"% fruit drop, day 5",Valencia orange [2]; 300 mg/L spray to run-off,63.3%
same,percentage of fruit drop as compared to Ethrel and the control,Valencia orange [2]; [3],substantially increased
same,"% reduction in fruit pull force, day 5",Hamlin orange; 200 mg/L spray to run-off,55%
same,"% reduction in fruit pull force, day 5",Hamlin orange; 300 mg/L spray to run-off,55.5%
same,reduction of fruit pull-force,Hamlin orange; [3],approximately 95%
"O=P(O)(O)CCCl [Ethrel ®, 2-chloroethyl phosphonic acid]","% reduction in fruit pull force, day 5",Valencia orange [1]; 200 mg/L spray to run-off,71.7%
same,"% fruit drop, day 5",Valencia orange [2]; 200 mg/L spray to run-off,13.3%
same,"% reduction in fruit pull force, day 5",Hamlin orange; 200 mg/L spray to run-off,64%
